Experimental data taken from US8211927B2, “5-phenyl-isoxazole-3-carboxamide derivatives as TRPV1 modulators” (MSD, Oss B.V., priority 2007, dated 2012).

target: T1, human VR1 (Homo sapiens, UniProt Q8NER1); experiment: FLIPR Calcium 3 calcium flux assay (headed Vanilloid Receptor Binding Assay), antagonist activity against capsaicin; type: cell-based; conditions: 10 min; highest concentration of 10 μM; Chinese hamster ovary cells expressing human VR1; read-out: TRPV1 % Mean effect at 10 μM concentration
T1 construct: expressed in transfected cells
Excerpt: Methods to construct such recombinant cell lines are well known in the art (Sambrook et al., Molecular Cloning: a Laboratory Manual, Cold Spring Harbor Laboratory Press, Cold Spring Harbor, 2000). The compounds of the invention are thus useful in the treatment of TRPV1 mediated disorders, such as in the treatment of acute and chronic pain disorders, acute and chronic neuropathic pain, acute and chronic inflammatory pain, respiratory diseases and in lower urinary tract disorders.
Test compounds were prepared as stock solution in dimethylsulfoxide and tested for activity over several log units (ranging 100 μM-100 pM). Compounds were further diluted in assay buffer as necessary for IC50 determination.
Chinese hamster ovary cells expressing human VR1 were grown in DMEM/F12 50/50 Mix (Mediatech, Inc., Herndon, Va., USA), supplemented with 10% FetalClone II (Hyclone, Logan, Utah, USA), 1% GlutaMax (Invitrogen Corp., Carlsbad, Calif., USA), 1% Pen/Strep (Mediatech) and 0.4 mg/ml G418 (Mediatech). The day before the assay, cells were seeded into 384-well tissue culture-treated black plates with clear bottoms (Corning, Inc., Corning, N.Y., USA), at 10,000 viable cells/well in 50 μl/well of medium containing no G418.
On the day of the assay, which is the FLIPR® Calcium 3 Assay commercially available from Molecular Devices Corp., Sunnyvale, Calif. USA, the plating medium was removed and replaced with 25 μl/well 1× Calcium 3 Assay kit dye, prepared in VR1 Buffer (160 mM NaCl, 4.5 mM KCl, 10 mM HEPES, 10 mM Glucose, 2 mM CaCl2, 1 mM MgCl2 and 0.5 mM Probenecid). After 1 hour incubation at room temperature, the plates were loaded into the FLIPR (Molecular Devices, Corp.), which adds 12.5 μl of test compound in VR1 Buffer containing 4% dimethylsulfoxide and reads the subsequent change in the fluorescence of the cells to monitor agonist activity. Ten minutes after compound addition, the plates were reloaded into the FLIPR, which adds 12.5 μl of 30 nM capsaicin in VR1 Buffer and reads the subsequent change in the fluorescence of the cells to monitor antagonist activity. In this way, the same assay was used to assess both the agonist activity and antagonist activity of test compounds.

T1 sequence (Q8NER1 whole entry): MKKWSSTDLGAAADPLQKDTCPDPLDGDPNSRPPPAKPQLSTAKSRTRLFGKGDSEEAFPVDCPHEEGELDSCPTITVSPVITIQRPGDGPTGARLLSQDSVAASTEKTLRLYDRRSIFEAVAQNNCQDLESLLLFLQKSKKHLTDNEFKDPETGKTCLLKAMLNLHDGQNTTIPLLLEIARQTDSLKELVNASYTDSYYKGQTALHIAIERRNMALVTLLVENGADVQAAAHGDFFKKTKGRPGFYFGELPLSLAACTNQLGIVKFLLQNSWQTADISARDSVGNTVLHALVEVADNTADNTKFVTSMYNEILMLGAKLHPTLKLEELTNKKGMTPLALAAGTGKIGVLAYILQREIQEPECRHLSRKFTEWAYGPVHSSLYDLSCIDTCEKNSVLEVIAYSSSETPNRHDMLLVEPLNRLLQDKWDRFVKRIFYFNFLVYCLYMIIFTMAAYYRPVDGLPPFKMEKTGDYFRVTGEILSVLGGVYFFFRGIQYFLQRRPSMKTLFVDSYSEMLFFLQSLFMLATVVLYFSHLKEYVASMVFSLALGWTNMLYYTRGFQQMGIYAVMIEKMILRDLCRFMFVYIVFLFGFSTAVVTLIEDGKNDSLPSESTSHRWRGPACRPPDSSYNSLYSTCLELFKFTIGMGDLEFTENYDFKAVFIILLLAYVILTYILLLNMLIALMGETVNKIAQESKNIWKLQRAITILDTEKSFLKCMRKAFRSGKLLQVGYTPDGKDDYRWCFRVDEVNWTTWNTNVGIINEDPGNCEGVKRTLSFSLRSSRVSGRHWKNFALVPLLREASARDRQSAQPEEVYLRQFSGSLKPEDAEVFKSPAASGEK

inhibition at 10 µM | SMILES
96% | O=C(NC1CCCC1)c1noc(-c2ccc(C(F)(F)F)cc2)c1F
67% | O=C(NC1CCCC1)c1noc(-c2ccc(C(F)(F)F)cc2)c1Br
101% | Cc1c(C(=O)NC2CCCC2)noc1-c1ccc(C(F)(F)F)cc1
98% | CCCc1c(C(=O)CC2CCCC2)noc1-c1ccc(C(F)(F)F)cc1
89% | O=C(NC1CCOCC1)c1noc(-c2ccc(C(F)(F)F)cc2)c1Cl
98% | O=C(NC1CCCC1)c1noc(-c2ccc(F)cc2)c1Cl
88% | O=C(NC1CCCCC1)c1noc(-c2ccc(Cl)cc2)c1Cl
103% | O=C(Nc1cccc(CO)c1)c1noc(-c2ccc(C(F)(F)F)c(F)c2)c1Cl
99% | Cc1c(C(=O)NC2CCOCC2)noc1-c1ccc(C(F)(F)F)c(F)c1
99% | CC[C@H](CO)NC(=O)c1noc(-c2ccc(C(F)(F)F)c(F)c2)c1C
103% | Cc1c(C(=O)N[C@@H](C)C(C)C)noc1-c1ccc(C(F)(F)F)c(F)c1
90% | O=C(NC1CCCC1)c1noc(-c2ccc(C(F)(F)F)cc2)c1Cl
102% | O=C(NC1CCCC1)c1noc(-c2ccc(Cl)cc2)c1Cl
89% | CCCC(C)NC(=O)c1noc(-c2ccc(Cl)cc2)c1Cl (centres unmarked)
97% | O=C(NC1CCCC1)c1cc(-c2ccc(C(F)(F)F)cc2)on1
17% | O=C(NC1CCCC1)c1cc(-c2ccc(Cl)cc2)on1
50% | CCCC(C)NC(=O)c1cc(-c2ccc(Cl)cc2)on1 (centres unmarked)

same assay, conditions: Chinese hamster ovary cells expressing human VR1; antagonist activity vs 30 nM capsaicin; read-out: TRPV1 pEC50 (converted)

EC50 | SMILES
0.0316 µM | O=C(NC1CCCC1)c1noc(-c2ccc(C(F)(F)F)cc2)c1F
0.01 µM | O=C(NC1CCCC1)c1noc(-c2ccc(C(F)(F)F)cc2)c1Br
0.0398 µM | Cc1c(C(=O)NC2CCCC2)noc1-c1ccc(C(F)(F)F)cc1
0.1 µM | CCCc1c(C(=O)CC2CCCC2)noc1-c1ccc(C(F)(F)F)cc1
0.0316 µM | O=C(NC1CCOCC1)c1noc(-c2ccc(C(F)(F)F)cc2)c1Cl
0.1 µM | O=C(NC1CCCC1)c1noc(-c2ccc(F)cc2)c1Cl
0.0631 µM | O=C(NC1CCCCC1)c1noc(-c2ccc(Cl)cc2)c1Cl
0.0316 µM | O=C(Nc1cccc(CO)c1)c1noc(-c2ccc(C(F)(F)F)c(F)c2)c1Cl
0.0126 µM | Cc1c(C(=O)NC2CCOCC2)noc1-c1ccc(C(F)(F)F)c(F)c1
0.0631 µM | CC[C@H](CO)NC(=O)c1noc(-c2ccc(C(F)(F)F)c(F)c2)c1C
0.1 µM | Cc1c(C(=O)N[C@@H](C)C(C)C)noc1-c1ccc(C(F)(F)F)c(F)c1
0.00398 µM | O=C(NC1CCCC1)c1noc(-c2ccc(C(F)(F)F)cc2)c1Cl
0.0158 µM | O=C(NC1CCCC1)c1noc(-c2ccc(Cl)cc2)c1Cl
0.158 µM | CCCC(C)NC(=O)c1noc(-c2ccc(Cl)cc2)c1Cl (centres unmarked)
0.501 µM | O=C(NC1CCCC1)c1cc(-c2ccc(C(F)(F)F)cc2)on1
